# Measured values published in patent publication US7112574B2, “C2,8-disubstituted adenosine derivatives and their different uses” (priority 2001, dated 2006).
# Read-outs that look alike come from different tables or passages of the source.
# Legend:
# adenosine A2A receptor = adenosine A2A receptor (Rattus norvegicus, UniProt P30543); experiment: biochemical; settings: for A3/A2A: ratio of Ki A3 (human) to Ki A2A (rat); for % displacement at 10^-5 M, A2A: [3H]ZM241385, rat striatal membranes, 10 μM, n=2, mean value
# Protocol: (§1) Incubations were carried out for 1 hr at 37° C. and were terminated by rapid filtration over Whatman GF/B filters, using a Brandell cell harvester (Brandell, Gaithersburg, Md.). Tubes were washed three times with 3 ml of buffer. Radioactivity was determined in a Beckman 5500B γ-counter. Nonspecific binding was determined in the presence of 10^−5 M R-PIA.
# (§2) All compounds prepared were tested in radioligand binding assays to determine their affinities for the adenosine A1 receptor in rat brain cortex, the A2A receptor in rat striatum and the human A3 receptor as expressed in HEK 293 cells (Table 2, hereinafter). The Ki values were computed from the displacement curves obtained by nonlinear regression of the competition curves with the software package Prism (Graph Pad, San Diego, Calif.)
# (§3) For the adenosine A1 receptor, the tritiated antagonist, [^3H]-1,3-dipropyl-8-cyclopentylxanthine ([^3H]DPCPX), and for the adenosine A2A receptor, the tritiated antagonist [^3H]ZM 241385 were used. Since radiolabeled antagonists are not commercially available for the adenosine A3 receptor, [125I]AB-MECA, an A3 receptor agonist, was used. Displacement experiments were performed in the absence of GTP.
# adenosine A1 receptor = target: T1, adenosine A1 receptor (Rattus norvegicus, UniProt P25099); experiment: biochemical; settings: for inhibition at 10 µM: read-out: % displacement at 10^-5 M, A1
# T1 sequence (P25099 1-326): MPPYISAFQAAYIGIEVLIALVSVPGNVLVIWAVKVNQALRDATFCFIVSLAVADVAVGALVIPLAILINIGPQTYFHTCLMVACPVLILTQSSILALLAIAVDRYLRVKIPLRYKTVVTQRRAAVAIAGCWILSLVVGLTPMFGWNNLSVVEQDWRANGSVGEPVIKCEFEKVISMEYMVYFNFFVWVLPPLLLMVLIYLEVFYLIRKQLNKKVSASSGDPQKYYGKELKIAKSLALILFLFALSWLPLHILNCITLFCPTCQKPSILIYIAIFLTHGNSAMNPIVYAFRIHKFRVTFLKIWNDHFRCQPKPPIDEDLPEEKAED
# Protocol: as §1, §2, §3
# [1] = target: human adenosine A2A receptors (Homo sapiens, UniProt P29274); settings: for agonist behaviour (intrinsic activity) at the adenosine A2A receptor: cAMP production compared to reference agonist CGS 21680, words
# Protocol: CHO cells expressing the human adenosine A2A receptors were grown overnight as a monolayer in 24 wells tissue culture plates (400 μl/well; 2×10^5 cells/well). cAMP generation was performed in Dulbecco's Modified Eagles Medium (DMEM)/N-2-hydroxyethylpiperazin-N′-2-ethansulfonic acid HEPES) buffer (0.60 g HEPES/50 ml DMEM pH 7.4). To each well, washed three times with DMEM/HEPES buffer (250 μl), 100 μl DMEM/HEPES buffer, 100 μl adenosine deaminase (final concentration 5 IU/ml) and 100 μl of a mixture of rolipram and cilostamide (final concentration 50 μM each) were added. After incubation for 40 minutes at 37° C., 100 μL agonist was added. After 15 minutes at 37° C., the reaction was terminated by removing the medium and adding 200 μl 0.1 M HCl. Wells were stored at −20° C. until assay.
# The amounts of cAMP were determined after a protocol with cAMP binding protein^12 with the following minor modifications. As a buffer was used 150 mM K2HPO4/10 mM EDTA/0.2% Bovine Serum Albumine (BSA) at pH 7.5. Samples (20 μl+30 μl 0.1 M HCl) were incubated for at least 2.5 hours at 0° C. before filtration over Whatman GF/B filters. […] Filters were counted in Packard Emulsifier Safe scintillation fluid (3.5 ml) after 24 hours of extraction.
# All compounds prepared were also tested in a functional assay.
# human A3 receptor = target: T2, human A3 receptor (Homo sapiens, UniProt P0DMS8); experiment: Radioligand binding, displacement of [125I]AB-MECA from human A3 receptor expressed in HEK 293 cells; settings: for % displacement at 10^-5 M, A3: 10 μM, n=2, mean value
# T2 construct: expressed in transfected cells; host or cells: HEK 293
# T2 sequence (P0DMS8 1-318): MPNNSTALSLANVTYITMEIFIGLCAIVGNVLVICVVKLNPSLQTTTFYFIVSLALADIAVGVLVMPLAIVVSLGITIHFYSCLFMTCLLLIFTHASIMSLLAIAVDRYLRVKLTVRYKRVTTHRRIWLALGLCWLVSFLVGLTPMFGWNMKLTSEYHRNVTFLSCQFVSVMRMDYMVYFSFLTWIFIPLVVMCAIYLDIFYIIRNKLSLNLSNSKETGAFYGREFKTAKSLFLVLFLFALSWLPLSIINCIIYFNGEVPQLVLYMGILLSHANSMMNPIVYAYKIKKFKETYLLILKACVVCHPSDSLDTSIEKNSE
# Protocol: as §1, §2, §3
# [2] = [125I]AB-MECA, human A3 receptor in HEK 293 cells
Compound,Ki (adenosine A2A receptor),A3/A2A (adenosine A2A receptor),inhibition at 10 µM (adenosine A1 receptor),% cAMP production hA2A [1],agonist behaviour (intrinsic activity) at the adenosine A2A receptor [1],Ki (human A3 receptor),"% displacement at 10^-5 M, A2A (adenosine A2A receptor)",Ki (adenosine A1 receptor),melting point,"% displacement at 10^-5 M, A3 (human A3 receptor; [2])","Ki (human A3 receptor; [125I]AB-MECA, human A3 receptor in HEK 293 cells, ±SEM, n=3, read-out: Ki A3)",selectivity for the adenosine A2A receptor compared to A3 (adenosine A2A receptor; from Ki values)
"CCCCC#Cc1nc(N)c2nc(NCC)n([C@@H]3O[C@H](CO)[C@@H](O)[C@H]3O)c2n1 [Compound 13, 2-(1-hexynyl)-8-ethylaminoadenosine]",253 ± 29 nM,34.9,30.9%,134% (124–143),full agonist,8830 ± 1230 nM,,,,,,
"CCCCC#Cc1nc(N)c2nc(NCc3ccccc3)n([C@@H]3O[C@H](CO)[C@@H](O)[C@H]3O)c2n1 [Compound 16, 2-(1-hexynyl)-8-Benzylaminoadenosine]",,,,83% (61–106),full agonists,7970 ± 610 nM,35.4%,756 ± 483 nM,141 to 143 °C,,,
"CCCCC#Cc1nc(N)c2nc(NCCCC)n([C@@H]3O[C@H](CO)[C@@H](O)[C@H]3O)c2n1 [Compound 15, 2-(1-hexynyl)-8-butylaminoadenosine]",149 ± 29 nM,,,72% (63–82),,,,539 ± 380 nM,182 to 184 °C,64.3%,,
"CCCC/C=C/c1nc(N)c2ncn([C@@H]3O[C@H](CO)[C@@H](O)[C@H]3O)c2n1 [Compound 4, 2-((E)-1-hexenyl)adenosine]",26.2 ± 1.8 nM,2.78,53.1%,82% (78–86),partial agonism,73.5 ± 7.7 nM,,,,,,
"CCCCC#Cc1nc(N)c2ncn([C@@H]3O[C@H](CO)[C@@H](O)[C@H]3O)c2n1 [Compound 3, 2-(1-hexynyl)adenosine]",,,,61% (58–64),partial agonism,,,,,,16.9 ± 4.1 nM,
"CCNc1nc2c(N)nc(I)nc2n1[C@@H]1O[C@H](CO)[C@@H](O)[C@H]1O [Compound 8, 2-iodo-8-ethylaminoadenosine]",,,35.2%,77% (76–78),,5110 ± 890 nM,40.6%,,205 to 207 °C,,,
"CCCCC#Cc1nc(N)c2nc(NCCC)n([C@@H]3O[C@H](CO)[C@@H](O)[C@H]3O)c2n1 [Compound 14, 2-(1-Hexynyl)-8-propylaminoadenosine]",82 nM,26.3,47.6%,58% (50–66),,2160 ± 120 nM,,,184 to 186 °C,,,~26 fold
"CCCC/C=C/c1nc(N)c2nc(NCCC)n([C@@H]3O[C@H](CO)[C@@H](O)[C@H]3O)c2n1 [Compound 19, 2-((E)-1-hexenyl)-8-propylaminoadenosine]",678 ± 25 nM,21.1,49.5%,73% (70–76),,14300 ± 2160 nM,,,170 to 172 °C,,,
"CCCC/C=C/c1nc(N)c2nc(NCC)n([C@@H]3O[C@H](CO)[C@@H](O)[C@H]3O)c2n1 [Compound 18, 2-((E)-1-hexenyl)-8-ethylaminoadenosine]",1840 ± 300 nM,9.53,30%,65% (63–66),,17500 ± 2100 nM,,,128 to 130 °C,,,
"Nc1nc(I)nc2c1nc(NCc1ccccc1)n2[C@@H]1O[C@H](CO)[C@@H](O)[C@H]1O [Compound 11, 2-iodo-8-benzylaminoadenosine]",,,35.5%,125% (92–157),full agonists,,44.7%,,,39.5%,,
"Nc1nc(I)nc2c1ncn2[C@@H]1O[C@H](CO)[C@@H](O)[C@H]1O [Compound 1, 2-Iodoadenosine]",,,36.1%,126% (118–134),full agonist,,,,,,,
"CCCCC#Cc1nc(N)c2nc(C#CCCCC)n([C@@H]3O[C@H](CO)[C@@H](O)[C@H]3O)c2n1 [Compound 22, 2,8-di-(1-hexynyl)adenosine]",,,50.3%,99% (98–99),full agonists,254 ± 34 nM,28.7%,,,,,
"CCCC/C=C/c1nc(N)c2nc(NCCCC)n([C@@H]3O[C@H](CO)[C@@H](O)[C@H]3O)c2n1 [Compound 20, 2-((E)-1-hexenyl)-8-butylaminoadenosine]",580 ± 250 nM,,,36% (33–40),,,,906 ± 264 nM,,47.4%,,
"Nc1nc(I)nc2c1nc(Br)n2[C@@H]1O[C@H](CO)[C@@H](O)[C@H]1O [Compound 5, 2-iodo-8-bromoadenosine]",,,21.6%,,,,43.1%,,,6.2%,,
"CCCC/C=C/c1nc(N)c2nc(NC)n([C@@H]3O[C@H](CO)[C@@H](O)[C@H]3O)c2n1 [Compound 17, 2-((E)-1-Hexenyl)-8-methylaminoadenosine]",663 ± 106 nM,20.3,17.9%,54% (49–59),,13400 ± 2130 nM,,,161 to 166 °C,,,
"CCCC/C=C/c1nc(N)c2nc(NCc3ccccc3)n([C@@H]3O[C@H](CO)[C@@H](O)[C@H]3O)c2n1 [Compound 21, 2-((E)-1-hexenyl)-8-benzylaminoadenosine]",,,,73% (72–75),,,26.3%,2110 ± 560 nM,153 to 155 °C,24.3%,,
"CCCCC#Cc1nc(N)c2nc(NC)n([C@@H]3O[C@H](CO)[C@@H](O)[C@H]3O)c2n1 [Compound 12, 2-(1-Hexynyl)-8-methylaminoadenosine]",115 nM,49.0,31.6%,85% (85–86),,5640 ± 780 nM,,,,,,
"CCCCNc1nc2c(N)nc(I)nc2n1[C@@H]1O[C@H](CO)[C@@H](O)[C@H]1O [Compound 10, 2-Iodo-8-butylaminoadenosine]",3110 ± 1650 nM,,28.2%,28% (27–30),,,,,,43.1%,,
"CCCNc1nc2c(N)nc(I)nc2n1[C@@H]1O[C@H](CO)[C@@H](O)[C@H]1O [Compound 9, 2-Iodo-8-propylaminoadenosine]",,,40.2%,,,8670 ± 2000 nM,50.7%,,160 to 162 °C,,,
"Nc1nc(NCc2ccccc2)nc2c1nc(NCc1ccccc1)n2[C@@H]1O[C@H](CO)[C@@H](O)[C@H]1O [Compound 23, 2,8-di-benzylaminoadenosine]",,,50.2%,95% (90–100),full agonists,,11.6%,,,54.1%,,
